Numbering of substitutions follows the chain as printed. Where a SMILES comes first, the peptide text is derived from it.

The values below come from paper PMC2099433, “The binding site for neohesperidin dihydrochalcone at the human sweet taste receptor” (BMC Structural Biology, 2007).

The target in test [1] is T1, hTAS1R2 + hTAS1R3 V621L^2.58 (Homo sapiens, UniProt Q7RTX0+Q8TE23, V621L).
T1 construct: expressed in transfected cells; host or cells: HEK293T cells stably expressing G16Gust44
T1 sequence (Q8TE23 20-839): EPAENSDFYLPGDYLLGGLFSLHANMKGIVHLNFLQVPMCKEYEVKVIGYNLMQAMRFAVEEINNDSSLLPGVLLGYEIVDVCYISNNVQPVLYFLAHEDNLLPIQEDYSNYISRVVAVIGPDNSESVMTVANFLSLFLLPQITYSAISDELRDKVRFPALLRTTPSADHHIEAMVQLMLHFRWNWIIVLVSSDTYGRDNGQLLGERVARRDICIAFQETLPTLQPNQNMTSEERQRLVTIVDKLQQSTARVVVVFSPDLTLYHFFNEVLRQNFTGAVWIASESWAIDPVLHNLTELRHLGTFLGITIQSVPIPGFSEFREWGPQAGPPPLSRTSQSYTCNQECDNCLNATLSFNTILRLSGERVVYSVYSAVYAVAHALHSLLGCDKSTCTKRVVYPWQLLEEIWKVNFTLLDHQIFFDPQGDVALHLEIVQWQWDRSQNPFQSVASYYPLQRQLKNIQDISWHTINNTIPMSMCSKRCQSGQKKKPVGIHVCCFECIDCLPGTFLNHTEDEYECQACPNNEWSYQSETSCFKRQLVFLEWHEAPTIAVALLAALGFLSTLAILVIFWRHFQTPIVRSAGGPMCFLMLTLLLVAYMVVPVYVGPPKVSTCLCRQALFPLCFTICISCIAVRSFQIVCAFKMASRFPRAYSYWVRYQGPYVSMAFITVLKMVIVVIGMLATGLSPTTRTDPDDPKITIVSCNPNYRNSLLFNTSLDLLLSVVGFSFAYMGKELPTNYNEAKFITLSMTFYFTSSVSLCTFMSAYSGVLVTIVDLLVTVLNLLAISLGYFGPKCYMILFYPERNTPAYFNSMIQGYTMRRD
T1 sequence (Q7RTX0 21-852 V621L): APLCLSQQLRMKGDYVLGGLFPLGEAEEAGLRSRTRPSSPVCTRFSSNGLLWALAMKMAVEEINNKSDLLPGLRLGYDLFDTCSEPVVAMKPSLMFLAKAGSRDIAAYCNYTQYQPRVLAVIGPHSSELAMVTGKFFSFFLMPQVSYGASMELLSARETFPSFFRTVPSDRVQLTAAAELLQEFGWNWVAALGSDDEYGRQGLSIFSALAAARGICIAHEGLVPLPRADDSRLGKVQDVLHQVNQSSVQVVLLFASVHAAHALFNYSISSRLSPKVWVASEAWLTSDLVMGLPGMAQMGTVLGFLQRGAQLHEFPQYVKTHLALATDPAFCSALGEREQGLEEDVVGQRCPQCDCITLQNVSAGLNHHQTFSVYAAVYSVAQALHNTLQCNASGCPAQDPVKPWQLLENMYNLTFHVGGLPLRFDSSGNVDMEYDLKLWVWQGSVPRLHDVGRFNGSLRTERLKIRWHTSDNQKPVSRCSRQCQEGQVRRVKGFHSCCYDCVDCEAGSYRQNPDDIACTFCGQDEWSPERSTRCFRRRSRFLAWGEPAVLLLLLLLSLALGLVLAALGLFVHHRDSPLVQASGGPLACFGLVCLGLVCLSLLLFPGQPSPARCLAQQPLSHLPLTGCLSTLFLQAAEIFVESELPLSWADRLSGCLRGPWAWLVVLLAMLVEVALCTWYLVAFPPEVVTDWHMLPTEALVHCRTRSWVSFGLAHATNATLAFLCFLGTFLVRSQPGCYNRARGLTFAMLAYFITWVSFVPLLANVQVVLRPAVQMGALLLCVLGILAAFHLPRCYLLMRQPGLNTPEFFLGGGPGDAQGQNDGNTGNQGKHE
Kind of test: Calcium response (FLIPR), hTAS1R3 mutant coexpressed with hTAS1R2. To be noted: for receptor activation: mutant V621L^2.58; for EC50: variant V621L^2.58, n.f. = no response to any tested sweetener. In kind it is cell-based. As to the method:
(§1) The cDNAs for TAS1Rs tagged at the C-terminus with the herpes simplex virus glycoprotein D (HSV) were transiently transfected into HEK293T cells stably expressing the chimeric G-protein subunit G16Gust44 [44] using Lipofectamine 2000 (Invitrogen, Carlsbad, CA) according to the manufacturer's protocol. 3–4 hours after transfection, DMEM was replaced by low-glucose DMEM supplemented with GlutaMAX and 10% dialyzed FBS (Invitrogen, Carlsbad, CA). 24 h post transfection, cells were loaded for 1 h with the calcium sensitive dye Fluo4-AM (2 μg/ml in DMEM, Molecular Probes, Carlsbad, CA). […] We monitored calcium mobilization following receptor stimulation with sweet tastants by an automated fluorometric imaging plate reader (FLIPR, Molecular Devices, Sunnyvale, CA). Compounds used as stimuli (Sigma-Aldrich, St. Louis, MO; Merck, Whitehouse Station, NJ) were dissolved in C1 solution. All data were collected from at least three independent experiments carried out in duplicate. The obtained calcium signals were corrected for the response of mock transfected cells and normalized to the fluorescence of cells prior to the application of the stimulus using ΔF/F = (F-F0)/F0.

Test [2] deals with T2, hTAS1R2 + hTAS1R3 S726A^5.39 (Homo sapiens, UniProt Q7RTX0+Q8TE23, S726A).
T2 construct: expressed in transfected cells; host or cells: HEK293T cells stably expressing G16Gust44
T2 sequence (Q7RTX0 21-852 S726A): T1 sequence (Q7RTX0 21-852 V621L) with L601V, S706A
T2 sequence (Q8TE23 20-839): T1 sequence (Q8TE23 20-839)
Described as above. It counts as cell-based. As to conditions: variant S726A^5.39; for Emax: read-out: maximal signal (% of wt). As to the method:
as §1

For `COc1ccc(CCC(=O)c2c(O)cc(O[C@@H]3O[C@H](CO)[C@@H](O)[C@H](O)[C@H]3O[C@@H]3O[C@@H](C)[C@H](O)[C@@H](O)[C@H]3O)cc2O)cc1O` [NHDC, neohesperidin dihydrochalcone], in test [1], the receptor activation result is on record as “could not be activated” and the EC50 entry is reported as “n.f”. Moreover, in test [2], the EC50 turned out to be 900 ± 300 µM and the Emax came out at 60 ± 50%.

As for `CC1=CC(=O)NS(=O)(=O)O1` [acesulfame K], the receptor activation entry in test [1] is reported as “could not be activated”.

`COC(=O)[C@H](Cc1ccccc1)NC(=O)[C@@H](N)CC(=O)O` [aspartame] (HELM PEPTIDE1{D.F.[CO[*:1]]}$$$$V2.0): in test [1], the receptor activation entry was “could not be activated” and the concentration for a half-maximal effect (EC50) result was “n.f”. Further, in test [2], the EC50 came out at 900 ± 300 µM and the Emax came to 50 ± 2%.

On to `O=S(=O)(O)NC1CCCCC1` [cyclamate], for which, in test [1], the receptor activation result is “could not be activated”. In test [2], the 50% effective concentration (EC50) was > 10000 µM.
